This passage reports IC50 and Ki results from ChEMBL document CHEMBL1135212, “Evolution, synthesis and SAR of tripeptide alpha-ketoacid inhibitors of the hepatitis C virus NS3/NS4A serine protease” (Bioorg Med Chem Lett, 2002).

Test [1] addresses Genome polyprotein (Hepatitis C virus genotype 1a (isolate 1) (HCV), UniProt P26664). As to the kind of experiment: Inhibition to hepatitis C virus (HCV) NS3/NS4A serine protease.
For test [2], the target named is Hepatitis C virus serine protease, NS3/NS4A (Hepatitis C virus, UniProt A3EZI9+D2K2A8). As to the kind of experiment: Inhibitory activity against hepatitis C virus (HCV) NS3/NS4A serine protease. The class given is protein-complex assay, Hepacivirus hominis.

Each structure is given as a SMILES string. Square brackets hold non-standard residues; d marks the D form. Peptide text beside a SMILES is read from it. Dip = N[C@H](C(=O)O)C(c1ccccc1)c1ccccc1; Abu(4,4-F2) = N[C@@H](CC(F)F)C(=O)O; Cha = N[C@@H](CC1CCCCC1)C(=O)O

Sequence of Genome polyprotein (P26664 1027-1657 limits assumed): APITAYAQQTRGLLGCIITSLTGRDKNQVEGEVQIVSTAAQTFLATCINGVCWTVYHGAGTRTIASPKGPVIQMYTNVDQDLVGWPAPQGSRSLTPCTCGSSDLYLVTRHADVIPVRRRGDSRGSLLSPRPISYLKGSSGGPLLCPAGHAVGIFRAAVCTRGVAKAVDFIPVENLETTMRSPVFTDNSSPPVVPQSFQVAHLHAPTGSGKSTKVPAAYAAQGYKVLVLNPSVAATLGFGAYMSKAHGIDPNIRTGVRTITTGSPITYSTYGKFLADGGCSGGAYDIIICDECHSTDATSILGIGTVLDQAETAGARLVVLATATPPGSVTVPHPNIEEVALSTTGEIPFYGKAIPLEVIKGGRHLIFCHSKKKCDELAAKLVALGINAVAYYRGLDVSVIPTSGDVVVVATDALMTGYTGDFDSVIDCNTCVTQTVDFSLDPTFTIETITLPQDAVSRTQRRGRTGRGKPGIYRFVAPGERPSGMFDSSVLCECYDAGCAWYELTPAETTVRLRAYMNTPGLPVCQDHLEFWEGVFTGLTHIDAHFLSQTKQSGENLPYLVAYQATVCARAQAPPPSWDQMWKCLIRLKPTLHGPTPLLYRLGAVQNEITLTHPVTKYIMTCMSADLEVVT
Sequence of Genome polyprotein (P26664 1658-1711 limits assumed): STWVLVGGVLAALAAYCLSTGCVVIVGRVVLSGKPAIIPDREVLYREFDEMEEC
Sequence of Hepatitis C virus serine protease, NS3/NS4A (D2K2A8 whole entry): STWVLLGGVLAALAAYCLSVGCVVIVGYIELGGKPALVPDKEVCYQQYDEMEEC
Sequence of Hepatitis C virus serine protease, NS3/NS4A (A3EZI9 whole entry): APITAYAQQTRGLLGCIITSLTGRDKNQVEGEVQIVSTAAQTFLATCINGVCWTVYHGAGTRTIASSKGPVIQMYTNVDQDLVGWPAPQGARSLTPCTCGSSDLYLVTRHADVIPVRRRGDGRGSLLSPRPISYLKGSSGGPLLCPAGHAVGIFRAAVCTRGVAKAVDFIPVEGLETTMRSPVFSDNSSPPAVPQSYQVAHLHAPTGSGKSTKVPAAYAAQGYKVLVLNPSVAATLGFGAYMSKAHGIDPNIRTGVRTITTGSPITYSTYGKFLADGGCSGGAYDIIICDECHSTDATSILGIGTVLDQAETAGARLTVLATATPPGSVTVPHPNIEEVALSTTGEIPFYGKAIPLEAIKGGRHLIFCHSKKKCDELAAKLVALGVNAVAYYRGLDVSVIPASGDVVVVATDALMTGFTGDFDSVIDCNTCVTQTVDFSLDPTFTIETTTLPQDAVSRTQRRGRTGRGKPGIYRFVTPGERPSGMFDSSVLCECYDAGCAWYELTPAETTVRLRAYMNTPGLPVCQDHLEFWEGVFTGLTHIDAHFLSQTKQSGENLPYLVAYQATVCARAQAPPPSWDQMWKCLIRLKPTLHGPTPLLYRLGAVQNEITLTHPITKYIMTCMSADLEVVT

In general, IC50 refers to the point on the concentration scale where inhibition reaches its midpoint. Low readings indicate higher potency, high ones lower potency. `CC(C)(C)OC(=O)N[C@@H](CCC(=O)O)C(=O)N[C@@H](CC(F)F)C(=O)N[C@@H](CC(F)F)C(=O)C(=O)O`: in test [1], it took 0.3 µM to reach half-maximal inhibition (IC50).
Still for that read-out and setting: with `CCC(C)[C@H](NC(=O)OCc1ccccc1)C(=O)N[C@@H](CC(C)C)C(=O)N[C@H](CC(=O)O)CC(F)F` (stereo partly drawn) the figure was above 50 µM; with `CCC(C)[C@H](NC(=O)OCc1ccccc1)C(=O)N[C@@H](CC(C)C)C(=O)N[C@@H](CC(F)F)C(=O)C(=O)OC` (stereo partly drawn), above 50 µM.
In test [1], `CCC(C)[C@H](NC(=O)OCc1ccccc1)C(=O)N[C@@H](CC(C)C)C(=O)N[C@@H](CC(F)F)C(O)C(=O)O` (stereo partly drawn) yielded an IC50 above 50 µM.
In turn, `CCC(C)[C@H](NC(=O)NCc1ccccc1)C(=O)N[C@@H](CC(C)C)C(=O)N[C@@H](CC(F)F)C(=O)C(=O)O` (stereo partly drawn) returned an IC50 in test [1] of 3.3 µM.
For the molecule `CCC(C)[C@H](NC(=O)OCc1ccccc1)C(=O)N[C@@H](Cc1ccccc1)C(=O)N[C@@H](CC(F)F)C(=O)C(=O)O` (stereo partly drawn), half-maximal inhibition in test [1] (IC50) required 9.4 µM. This IC50 lies about 2.8-fold higher than the previous one.
In turn, `CCC(C)[C@H](NC(=O)OCc1ccc(C(=O)OC)cc1)C(=O)N[C@@H](CC(C)C)C(=O)N[C@@H](CC(F)F)C(=O)C(=O)O` (stereo partly drawn) showed an IC50 in test [1] of 1.7 µM. This IC50 lies about 5.5-fold lower than the previous one.
The same measure, in the same setting: with `CC(=O)N[C@H](C(=O)[C@H](CCC(=O)O)N[C@@H](CC1CCCCC1)C(=O)N[C@H](C=O)CC(F)F)C(c1ccccc1)c1ccccc1` the figure was above 50 µM.
`CC(C)C[C@H](NC(=O)[C@H](CCC(=O)O)NC(=O)OC(C)(C)C)C(=O)N[C@@H](CC(F)F)C(=O)C(=O)O` displayed an IC50 in test [1] of 0.33 µM. In other words, the sub-micromolar range.
Regarding `CC(C)C[C@H](NC(=O)[C@H](CC(=O)O)NC(=O)OC(C)(C)C)C(=O)N[C@@H](CC(F)F)C(=O)C(=O)O`, it took 1.63 µM to reach half-maximal inhibition in test [1] (IC50).
As to `CC[C@H](C)[C@H](NC(=O)OCc1ccccc1)C(=O)N[C@@H](CC(C)C)C(=O)N[C@H](C=O)CC(F)F`, in test [1], the IC50 was above 50 µM.
On to `CC[C@H](NC(=O)[C@@H](NC(=O)OCc1ccccc1)[C@@H](C)CC)C(=O)N[C@@H](CC(F)F)C(=O)C(=O)O`, for which the IC50 in test [1] turned out to be 3.28 µM. That is a single-digit micromolar value.
`CC[C@H](C)[C@H](NC(C)=O)C(=O)N[C@@H](CC(C)C)C(=O)N[C@@H](CC(F)F)C(=O)C(=O)O` returned an IC50 in test [1] of 16 µM.
As to `CC[C@H](C)[C@H](NC(=O)OC(C)(C)C)C(=O)N[C@@H](CC(C)C)C(=O)N[C@@H](CC(F)F)C(=O)C(=O)O`, the IC50 in test [1] was 1 µM. Against the preceding molecule, the IC50 is about 16-fold lower.
The same measure, in the same setting: the same measure for `CC[C@H](C)[C@H](NC(=O)OCc1ccccc1)C(=O)N[C@@H](C)C(=O)N[C@@H](CC(F)F)C(=O)C(=O)O`: 15.6 µM; for `CC[C@H](C)[C@H](NC(=O)OCc1ccccc1)C(=O)NCC(=O)N[C@@H](CC(F)F)C(=O)C(=O)O`: above 100 µM.
For the molecule `CC(C)C[C@H](NC(=O)[C@@H](NC(=O)OC(C)(C)C)C1CCCC1)C(=O)N[C@@H](CC(F)F)C(=O)C(=O)O`, the IC50 in test [1] came to 0.38 µM.
Same read-out and setting: the same measure for `CC[C@H](C)[C@H](NC(=O)OCc1ccccc1)C(=O)N[C@@H](CC(C)C)C(=O)N[C@@H](CC(F)F)C(=O)c1nnn[nH]1`: above 50 µM.
`CCC(C)[C@H](NC(=O)OCc1ccc(C(=O)O)cc1)C(=O)N[C@@H](CC(C)C)C(=O)N[C@@H](CC(F)F)C(=O)C(=O)O` (stereo partly drawn): the IC50 in test [1] was found to be 0.44 µM.
On the same count and under the same terms, the same measure for `CC(=O)N[C@H](C(=O)[C@H](CCC(=O)O)N[C@@H](CC1CCCCC1)C(=O)N[C@@H](CC(F)F)C(=O)O)C(c1ccccc1)c1ccccc1`: above 50 µM.
For the molecule `CCC(C)[C@H](NC(=O)OCc1ccccc1)C(=O)N[C@H](C(=O)N[C@@H](CC(F)F)C(=O)C(=O)O)C(C)C` (stereo partly drawn), it took 16 µM to reach half-maximal inhibition in test [1] (IC50).
`CC[C@H](C)[C@H](NC(=O)OCc1ccccc1)C(=O)N[C@@H](CC1CCCCC1)C(=O)N[C@@H](CC(F)F)C(=O)C(=O)O` yielded an IC50 in test [1] of 1.4 µM.
`CC(C)C[C@H](NC(=O)[C@@H](NC(=O)OC(C)(C)C)C(C)C)C(=O)N[C@@H](CC(F)F)C(=O)C(=O)O`: in test [1], the IC50 is 0.46 µM.
Molecule `CC(C)C[C@H](NC(=O)[C@H](C)NC(=O)OC(C)(C)C)C(=O)N[C@@H](CC(F)F)C(=O)C(=O)O` had a half-inhibitory concentration (IC50) in test [1] of 8.9 µM.
Molecule `CC(=O)N[C@H](C(=O)[C@H](CCC(=O)O)N[C@@H](CC1CCCCC1)C(=O)N[C@@H](CC(F)F)C(=O)C(=O)O)C(c1ccccc1)c1ccccc1` gave an IC50 in test [1] of 5.3 µM. Compared with the last molecule, the IC50 is about 1.7-fold lower.
As to `CC(C)C[C@H](NC(=O)[C@H](CCC(N)=O)NC(=O)OC(C)(C)C)C(=O)N[C@@H](CC(F)F)C(=O)C(=O)O`, the 50% inhibitory concentration (IC50) in test [1] turned out to be 2.1 µM.
Molecule `CC[C@H](C)[C@H](NC(=O)OCc1ccccc1)C(=O)N[C@@H](CC(C)C)C(=O)N[C@@H](CC(F)F)C(=O)C(=O)O` yielded an IC50 in test [1] of 1.7 µM.
In general, Ki refers to a measure of affinity in units of concentration, obtained from inhibition or displacement. The low end stands for tighter binding, the high end for weaker binding. In test [2], `CC(=O)N[C@@H](CC(=O)O)C(=O)N[C@@H](CCC(=O)O)C(=O)N[C@H](C(=O)N[C@@H](CCC(=O)O)C(=O)N[C@@H](CC1CCCCC1)C(=O)N[C@@H](CC(F)F)C(=O)O)C(c1ccccc1)c1ccccc1` (Ac-DE[Dip]E[Cha][Abu(4,4-F2)]-OH) showed a Ki of 0.04 µM.
